Measurements reported in patent US20050187152A1, “Prevention and treatment of hypergastrinemia” (Aphton Corporation, priority 1998, published 2005).
Where no end group is shown, it is not given here.

Tests used:
[1] = target: rabbit anti-G17 (C-terminal) antiserum; test: Displacement of radiolabelled G17 from C-terminal specific antiserum; format: binding; conditions: antiserum 100 μg/ml on solid phase, radiolabelled G17 100 pg/ml; FIG. 12
Description: (§1) Antisera were absorbed onto a solid phase at a concentration of 100 μg/ml and displacement was determined in a competitive assay with a fixed concentration of radiolabelled G17 (100 pg/ml) and increasing concentrations of unlabelled ligands (1-25,000 pg/ml).

[2] = target: rabbit anti-human G17(1-9):DT (N-terminal) antiserum; test: Displacement of radiolabelled G17 from N-terminal specific antiserum; format: binding; conditions: antiserum 100 μg/ml on solid phase, radiolabelled G17 100 pg/ml; FIG. 11
Description: as §1

[3] = tested on: polypoid carcinomas from the large and small intestine of Min mice; test: In vitro proliferation of Min mouse polypoid carcinomas, tetrazolium-based colorimetric assay; format: cell-based
Description: Polypoid carcinomas have been established in vitro from the large and small intestine of Min mice. Proliferation was assessed by a tetrazolium-based colorimetric ELISA assay.

plasma gastrin [4] = conditions: cited from earlier work
[5] = tested on: crypts and tumors of the small and large intestine; test: Bromodeoxyuridine in situ proliferation index in Min mice; format: in vivo, mouse; conditions: hypergastrinemic mice
Description: One hour prior to termination, mice were injected with DNA analogue bromodeoxyuridine in order to determine the comparative in situ proliferation activity. The samples were formalin fixed, paraffin embedded, sections were cut and stained with an anti-bromodeoxyuridine antibody.
Serum gastrin level was measured by RIA. Prior to end of treatment, proliferative index was determined by the bromodeoxyuridine method. • Group 1.

[6] = tested on: Min mouse model of familial adenomatous polyposis
Description: Accordingly, the effect of gastrin neutralization on Min mouse survival was determined.
The Min mice used in the study were bred within the Academic Unit of Cancer Studies at Nottingham University (U.K.) on a C57/BL background. […] The Min positive mice were then placed into each arm of the therapy on an ongoing basis.
Gastrin neutralization was achieved by using an immunogen, i.e. the gastrin immunogen preparation, which is composed of the amino terminal domain of gastrin-17 linked, via an amino acid spacer, to diphtheria toxoid which acts as the immunogenic carrier. The antibodies raised by virtue of the design of the immunogen, cross-react with both amidated and glycine-extended gastrin-17, known proliferative forms of gastrin. Min mice were immunized s.c. with the hG17-DT immunogen (100 mg/mouse) at week 4, with subsequent injections at 3 weekly intervals. […] The hG17-DT immunogen was administered to mice at 4 weeks of age to examine its effect on mice with an established tumor burden.
• Group 1. OME 75 mg/kg daily oral treatment • Group 2. OME+GSI 100 mg oral dose/mouse day 0 and every 3 weeks • Group 3. Oral vehicle+control immunogen • Group 4. Oral vehicle−control immunogen

plasma gastrin [7] = conditions: cited from earlier work; remark: listed apart in the source
plasma gastrin [8] = conditions: 400 μmol/kg, 14 mg/kg, 10 weeks; cited from earlier work
[9] = same dose (400 μmol/kg, 14 mg/kg)
[10] = patients receiving 40 mg daily for eight years

## G17: gastrin-17, unlabelled ligand in the displacement assay [Peptide G17]
[1]
  50% inhibitory concentration (IC50), displacement of radiolabelled G17: 0.8 ng/mL
[2]
  50% inhibitory concentration (IC50), displacement of radiolabelled G17: 3.5 ng/mL

## amidated gastrin: amidated gastrin added to Min mouse tumor cultures (QGPWLEEEEEAYGWMDF-NH2; ends and bridges not checked; UniProt P01350 76-92, looked up)
[3]
  proliferation of large intestinal tumor in vitro: not increased
  proliferation of small intestinal tumor in vitro: not increased

## COc1ccc2[nH]c([S+]([O-])Cc3ncc(C)c(OC)c3C)nc2c1 (centres unmarked) [omeprazole]
Plasma gastrin [4]; female rats, long-term (1-year) daily 400 μmol/kg, 14 mg/kg
  increase in gastrin compared to controls: 15 fold
Plasma gastrin [4]; [9]
  ECL cell density increase: about 300%
  increase of gastrin levels: 10 fold
[5]; increased from 9.46%, p<0.05 Mann-Whitney
  proliferating cells, normal colonic mucosa: 20.1%
[5]; increased from 22.3%, p<0.01
  proliferating cells, colonic neoplasia: 35.0%
[6]; Example 2, OME 75 mg/kg daily oral, control group 16 weeks, p=0.0001 log rank
  50% survival: 8 weeks
[6]; high daily doses of omeprazole
  effect of omeprazole-induced hypergastrinemia on survival of Min mice: decreases the survival
[6]; omeprazole-induced hypergastrinemia, reduced from approximately 10 weeks
  median survival: ~6 weeks
Plasma gastrin [7]; occasionally, long term treatment, 20-60 mg/day
  markedly elevated gastrin levels: 10 fold
Plasma gastrin [7]; [10]
  prevalence of micronodular hyperplasia in atrophic gastritis: 48%
  prevalence of micronodular hyperplasia in interstitial gastritis: 19.6%
  prevalence of micronodular hyperplasia in superficial corpus gastritis: 3.6%
Plasma gastrin [8]
  ECL density increase at the end of treatment: 37%
  increase in plasma gastrin during treatment: threefold
  stomach weight increase at the end of treatment: 34%

## G34: gastrin-34, unlabelled ligand in the displacement assay (QLGPQGPPHLVADPSKKQGPWLEEEEEAYGWMDF; ends and bridges not checked; UniProt P01350 59-92, looked up) [Peptide G34]
[1]
  IC25, displacement of radiolabelled G17: 0.5 ng/mL
